These results are taken from ChEMBL document CHEMBL1147303, “Antimicrobial tetraprenylphenols from Suillus granulatus” (1989).

A word on the MIC: it is the lowest concentration found to suppress growth.

In brackets after ≈: the same amount, converted by molar mass.

Type in all cases: functional
One assay deals with Enterococcus faecalis. The experiment in a line: Antibacterial activity against Streptococcus faecalis by serial broth dilution assay. (In broth dilution the organism is exposed to a series of concentrations in liquid medium.)
In another assay the test system is Bacillus subtilis. The assay can be described thus: Antibacterial activity against Bacillus subtilis by serial broth dilution assay.
The next assay concerns Proteus mirabilis. The experiment in a line: Antibacterial activity against Proteus mirabilis by serial broth dilution assay.
A further assay deals with Staphylococcus aureus. The experiment in a line: Antibacterial activity against Staphylococcus aureus ATCC 25923 by serial broth dilution assay.
The subject of another assay is Escherichia coli. The assay can be described thus: Antibacterial activity against Escherichia coli ATCC 25922 by serial broth dilution assay.
The next assay deals with Micrococcus luteus. The assay can be described thus: Antibacterial activity against Micrococcus luteus ATCC 4698 by paper disc-agar diffusion assay. (In general: A growth-free zone around the sample is the usual read-out of agar diffusion tests.)
Another assay relates to Hafnia alvei. The experiment in a line: Antibacterial activity against Hafnia alvei by serial broth dilution assay.
Another assay has as its system Aeromonas hydrophila. The experiment in a line: Antibacterial activity against Aeromonas hydrophila by serial broth dilution assay.

In the case of `COc1ccc(O)c(O)c1C/C=C(\C)CC/C=C(\C)CC/C=C(\C)CCC=C(C)C`, the minimal inhibitory concentration (MIC) with Enterococcus faecalis was > 100 µg/mL; against Bacillus subtilis, > 100 µg/mL; against Proteus mirabilis, > 100 µg/mL; with Staphylococcus aureus, > 100 µg/mL; against Escherichia coli, > 100 µg/mL; in the assay on Micrococcus luteus it was 100 µg/mL (≈ 242 µM). Also, the MIC in the assay on Hafnia alvei and with Aeromonas hydrophila was > 100 µg/mL each time.
For `CC(=O)Oc1c(O)ccc(O)c1C/C=C(\C)CC/C=C(\C)CC/C=C(\C)CCC=C(C)C`, the MIC is 100 µg/mL (≈ 227 µM) in the assay on Enterococcus faecalis; > 100 µg/mL in the assay with Bacillus subtilis; > 100 µg/mL in the assay on Proteus mirabilis; > 100 µg/mL in the assay on Staphylococcus aureus; 50 µg/mL (≈ 113 µM) in the assay with Escherichia coli; 50 µg/mL (≈ 113 µM) in the assay with Micrococcus luteus. Besides, the MIC in the assay on Hafnia alvei and against Aeromonas hydrophila was > 100 µg/mL in each case.
As to `COc1c(O)cc(O)cc1C/C=C(\C)CC/C=C(\C)CC/C=C(\C)CCC=C(C)C`, the MIC in the assay with Enterococcus faecalis was > 100 µg/mL; against Bacillus subtilis it was > 100 µg/mL; against Proteus mirabilis, > 100 µg/mL; against Staphylococcus aureus, > 100 µg/mL; against Escherichia coli, 1.56 µg/mL (≈ 3.78 µM); with Micrococcus luteus, 6.25 µg/mL (≈ 15.1 µM). The minimum inhibitory concentration (MIC) was > 100 µg/mL in the assay with Hafnia alvei and 0.78 µg/mL (≈ 1.89 µM) with Aeromonas hydrophila.
Take `CC(C)=CCC/C(C)=C/CC/C(C)=C/CCC1(C)C=Cc2c(ccc(O)c2O)O1` (stereo not given): the MIC with Enterococcus faecalis, against Bacillus subtilis, with Proteus mirabilis, with Staphylococcus aureus, against Escherichia coli and against Micrococcus luteus was > 100 µg/mL each time. The MIC in the assay on Hafnia alvei and with Aeromonas hydrophila was > 100 µg/mL in each case.
Regarding `CC(=O)Oc1c(O)cc(O)cc1C/C=C(\C)CC/C=C(\C)CC/C=C(\C)CCC=C(C)C`, the MIC is > 100 µg/mL with Enterococcus faecalis; > 100 µg/mL against Bacillus subtilis; > 100 µg/mL against Proteus mirabilis; > 100 µg/mL against Staphylococcus aureus; 6.25 µg/mL (≈ 14.2 µM) in the assay on Escherichia coli; 50 µg/mL (≈ 113 µM) in the assay with Micrococcus luteus. For the same compound, the MIC against Hafnia alvei is > 100 µg/mL; with Aeromonas hydrophila it was 12.5 µg/mL (≈ 28.4 µM).
